Test results as given in paper PMC6191125, “Peptidoglycan potentiates the membrane disrupting effect of the carboxyamidated form of DMS-DA6, a Gram-positive selective antimicrobial peptide isolated from Pachymedusa dacnicolor skin” (PLoS ONE, 2018).
Values after ≈ are worked out from the molar mass of the structure shown. Residues, ends and D or L forms follow the SMILES beside them.

Columns and labels:
B. subtilis CIP 52.65 = assay type: cell-based, Bacillus subtilis subsp. subtilis
Source text: (§1) Gram-negative bacterial strains, Escherichia coli ATCC 8739, Escherichia coli ATCC 35218, Escherichia coli ML 35p, Escherichia coli K12, Pseudomonas aeruginosa ATCC 27853, and Gram-positive bacterial strains, Enterococcus faecalis ATCC29212, Kocuria rhizophila ATCC 9341, Staphylococcus aureus ATCC 6538, Staphylococcus aureus ATCC 29213, Staphylococcus aureus ST 1065, Staphylococcus epidermidis BM 3302, and Bacillus subtilis subsp. subtilis CIP 52.65, as well as two multiresistant strains (Staphylococcus aureus DAR 5829 (http://www.ncbi.nlm.nih.gov/bioproject/228435) and Enterococcus faecium BM 4147 [20] were cultured as described previously. The minimal inhibitory concentration (MIC) of the peptides was determined by the microtiter broth dilution method. Overnight precultures were subcultured in Luria Bertani (LB) medium at 37°C with vigorous shaking until mid-log phase (~2h) and diluted to 10^7 cfu/mL. Peptide solutions were prepared at different concentrations (from 2 to 500 μM) by successive 2-fold dilutions in water from 1 mM stock solutions. In each row of a 96-well nonbinding surface plate, 90 μL of bacteria were incubated with 10 μL of peptide solutions for 18 h at 37°C. The final peptide concentrations ranged from 0.2 to 100 μM. Cell growth was evaluated by visual inspection and absorbance at 600 nm to determine the lowest concentration of peptide that prevented cell growth. Wells were either opaque, indicating stationary phase growth, or transparent indicating no growth. The lowest concentration showing no visible growth was considered as the MIC. After measurement of the MIC, the bactericidal activity was determined by the addition of resazurin dye (30 μL, 0.01% w/v) to each well [22]. The plates were further incubated at 37°C for 18 h. Wells in which the dye turned pink indicated live bacteria, whereas wells in which the dye remained blue indicated dead bacteria. The minimal bactericidal concentration (MBC) is the lowest concentration with blue coloration (99.9% of bacteria were killed). Three to five independent assays were performed in triplicate. Positive controls correspond to medium plus 0.2% formaldehyde and negative controls to medium without peptide.

A549 cells = assay: Cytotoxicity, trypan blue exclusion; assay type: cell-based; settings: A549 human lung carcinoma cells, 2-hour incubation at 37°C, 5% CO2, concentrations as high as 100 μM; 3 independent experiments in triplicate
Experimental: A549 cells (ATCC CCL-185), a human lung carcinoma cell line, were cultivated at 37°C, humid atmosphere and 5% CO2, in Petri dishes with DMEM Advanced medium (Gibco) supplemented with 5% of fetal bovine serum (FBS), 2 mM of glutamine, 100 U of penicillin and 50 μg/mL of streptomycin (Gibco). When the cells reached 80% confluence, the medium was discarded and the cells were washed with PBS 1×, before being treated with Trypsin 1× for 2 minutes to detach them form the culture dish. Cells were then resuspended in DMEM medium, seeded in a 48-well culture plate (500 000 cells/well), and either form of DMS-DA6 solubilized in PBS 1× was added and incubated for 2 hours at 37°C, 5% CO2. DMSO 30% was used as a positive control to induce cell death, and DMEM medium as negative control. After incubation, cell viability was assessed by trypan blue exclusion.

[1] = tested on: Ps. aeruginosa ATCC 27853; assay type: cell-based, Pseudomonas aeruginosa; settings: LB, 10^7 cfu/mL, 18 h at 37°C, peptide 0.2-100 μM, averaged over >=3 independent experiments in triplicate
Source text: as §1, with “Wells were either opaque, indicating stationary phase growth, or transparent indicating no growth. The lowest concentration showing no visible growth was considered as the MIC. After measurement of the MIC, the bactericidal activity was determined by the addition of resazurin dye (30 μL, 0.01% w/v) to each well [22]. The plates were further incubated at 37°C for 18 h. Wells in which the dye turned pink indicated live bacteria, whereas wells in which the dye remained blue indicated dead bacteria. The minimal bactericidal concentration (MBC) is the lowest concentration with blue coloration (99.9% of bacteria were killed). Three to five independent assays were performed in triplicate. Positive controls correspond to medium plus 0.2% formaldehyde and negative controls to medium without peptide.” left out

E. faecium BM 4147 = assay type: cell-based, Enterococcus faecium; settings: E. faecium BM 4147, multi-resistant strain
Source text: as §1

K. rhizophila ATCC 9341 = assay type: cell-based, Kocuria rhizophila
Source text: as §1

E. faecalis ATCC 29212 = assay type: cell-based, Enterococcus faecalis
Source text: as §1

E. coli ATCC 8739 = assay type: cell-based, Escherichia coli
Source text: as §1

E. coli ML 35p = assay type: cell-based, Escherichia coli; settings: LB, 10^7 cfu/mL, 18 h at 37°C, peptide 0.2-100 μM, averaged over >=3 independent experiments in triplicate
Source text: as §1

E. coli K12 = assay type: cell-based, Escherichia coli; settings: LB, 10^7 cfu/mL, 18 h at 37°C, peptide 0.2-100 μM, averaged over >=3 independent experiments in triplicate
Source text: as §1

E. coli ATCC 35218 = assay type: cell-based, Escherichia coli; settings: LB, 10^7 cfu/mL, 18 h at 37°C, peptide 0.2-100 μM, averaged over >=3 independent experiments in triplicate
Source text: as §1

S. aureus ATCC 29213 = assay type: cell-based, Staphylococcus aureus
Source text: as §1

S. aureus ATCC 6538 = assay type: cell-based, Staphylococcus aureus
Source text: as §1

S. aureus DAR 5829 = assay type: cell-based, Staphylococcus aureus; settings: S. aureus DAR 5829, multi-resistant strain
Source text: as §1

S. aureus ST 1065 = assay type: cell-based, Staphylococcus aureus
Source text: as §1

S. epidermidis BM3302 = assay type: cell-based, Staphylococcus epidermidis
Source text: as §1

[2] = LB, 10^7 cfu/mL, 18 h at 37°C, averaged over >=3 independent experiments in triplicate
[3] = resazurin dye added after MIC, further 18 h at 37°C, 99.9% killed, averaged over >=3 experiments in triplicate

## CC[C@H](C)[C@H](NC(=O)CNC(=O)[C@H](Cc1c[nH]c2ccccc12)NC(=O)[C@@H](NC(=O)CN)C(C)C)C(=O)N[C@@H](C)C(=O)N[C@@H](CCCCN)C(=O)N[C@H](C(=O)N[C@@H](C)C(=O)NCC(=O)N[C@@H](CCCCN)C(=O)N[C@H](C(=O)N[C@@H](CC(C)C)C(=O)NCC(=O)N[C@@H](CC(N)=O)C(=O)N[C@H](C(=O)N[C@@H](CC(C)C)C(=O)N1CCC[C@H]1C(=O)N[C@@H](Cc1c[nH]cn1)C(=O)N[C@H](C(=O)N[C@@H](Cc1ccccc1)C(=O)N[C@@H](CO)C(=O)N[C@@H](CO)C(=O)N[C@@H](CC(N)=O)C(=O)N[C@@H](CCC(N)=O)C(=O)N[C@@H](CO)C(=O)O)C(C)C)[C@@H](C)CC)C(C)C)[C@@H](C)CC [DMS-DA6-OH] (H-GVWGIAKIAGKVLGNILPHVFSSNQS-OH)
B. subtilis CIP 52.65; [2]
  MIC: 12.5 µM (≈ 33.7 µg/mL)
B. subtilis CIP 52.65; [3]
  MBC: 12.5 µM (≈ 33.7 µg/mL)
A549 cells
  death of A549 cells (trypan blue exclusion): neither DMS-DA6-OH (net charge +2) nor DMS-DA6-NH2 (net charge +3) resulted in the death
[1]
  MIC: >100 µM
E. faecium BM 4147; [2]
  MIC: 50 µM (≈ 135 µg/mL)
E. faecium BM 4147; [3]
  MBC: 100 µM (≈ 269 µg/mL)
K. rhizophila ATCC 9341; [2]
  MIC: 6.25 µM (≈ 16.8 µg/mL)
K. rhizophila ATCC 9341; [3]
  MBC: 12.5 µM (≈ 33.7 µg/mL)
E. faecalis ATCC 29212; [2]
  MIC: 100 µM (≈ 269 µg/mL)
E. faecalis ATCC 29212; [3]
  MBC: 100 µM (≈ 269 µg/mL)
other
  intact peptide remaining: > 90%
E. coli ATCC 8739; [2]
  MIC: 50 µM (≈ 135 µg/mL)
E. coli ATCC 8739; [3]
  MBC: 100 µM (≈ 269 µg/mL)
E. coli ML 35p
  MIC: >100 µM
E. coli K12
  MIC: >100 µM
E. coli ATCC 35218
  MIC: >100 µM
S. aureus ATCC 29213; [2]
  MIC: 6.25 µM (≈ 16.8 µg/mL)
S. aureus ATCC 29213; [3]
  MBC: 25 µM (≈ 67.3 µg/mL)
S. aureus ATCC 6538; [2]
  MIC: 12.5 µM (≈ 33.7 µg/mL)
S. aureus ATCC 6538; [3]
  MBC: 12.5 µM (≈ 33.7 µg/mL)
S. aureus DAR 5829; [2]
  MIC: 50 µM (≈ 135 µg/mL)
S. aureus DAR 5829; [3]
  MBC: 50 µM (≈ 135 µg/mL)
S. aureus ST 1065; [2]
  MIC: 25 µM (≈ 67.3 µg/mL)
S. aureus ST 1065; [3]
  MBC: 25 µM (≈ 67.3 µg/mL)
S. epidermidis BM3302; [2]
  MIC: 25 µM (≈ 67.3 µg/mL)
S. epidermidis BM3302; [3]
  MBC: 25 µM (≈ 67.3 µg/mL)
